Assay results published in BindingDB's records for doi:10.7270/Q2WQ02FK (The Scripps Research Institute Molecular Screening Center, 2013).

Target: T1, T cell receptor alpha variable 4 (Homo sapiens, UniProt A0A0B4J268)
T1 sequence (A0A0B4J268 whole entry): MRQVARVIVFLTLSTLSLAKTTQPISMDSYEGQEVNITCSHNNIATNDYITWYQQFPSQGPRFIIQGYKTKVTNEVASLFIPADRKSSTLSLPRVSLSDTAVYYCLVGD

`Nc1nnc(CC(=O)N/N=C/C2C=C([N+](=O)[O-])C=CC2=O)s1` (configuration not stated) [2-(5-amino-1,3,4-thiadiazol-2-yl)-N'-[(E)-(3-nitro-6-oxo-1-cyclohexa-2,4-dienylidene)methyl]acetohydrazide] showed an IC50 of over 94.1 µM.
In the case of `O=[N+]([O-])c1cc(Br)c(O)c(CN=Nc2nnnn2-c2cccc3ccccc23)c1` [(6E)-2-bromo-6-[[2-(1-naphthalen-1-yltetrazol-5-yl)hydrazinyl]methylidene]-4-nitrocyclohexa-2,4-dien-1-one], the IC50 is reported as over 94.1 µM.
`Cc1ccccc1C(=O)Nc1cccc(C(=O)N/N=C/C2C=C(Cl)C=C([N+](=O)[O-])C2=O)c1` (configuration not stated) [N-(3-{[(2E)-2-(5-chloro-2-hydroxy-3-nitrobenzylidene)hydrazino]carbonyl}phenyl)-2-methylbenzamide] showed an IC50 of over 94.1 µM.
With `O=C1C=CC([N+](=O)[O-])=CC1C=NNC(=S)Nc1ccc(Cl)cc1Cl` (configuration not stated) [MLS000777079] the IC50 was over 94.1 µM.
For `CC1=CC(/C=N/n2c(CO[N-][C+](C)c3ccccc3)nc3ccccc3c2=O)C(=O)C([N+](=O)[O-])=C1` (configuration not stated), the IC50 was over 94.1 µM.
In the case of `O=C(N/N=C/C1C=C(Cl)C=C([N+](=O)[O-])C1=O)c1ccc2c(c1)OCO2` (configuration not stated) [N'-[(E)-(3-chloranyl-5-nitro-6-oxidanylidene-cyclohexa-2,4-dien-1-ylidene)methyl]-1,3-benzodioxole-5-carbohydrazide], the IC50 is reported as over 94.1 µM.
In the case of `CN1C(=O)C(C=NNC(=O)c2cc3ccccc3cc2O)c2ccccc21` (configuration not stated) [MLS000912237], the IC50 is reported as over 94.1 µM.
In the case of `CCC(NNC(=O)c1ccccc1O)=C1C(=O)NC(=O)N(Cc2ccccc2)C1=O` [2-hydroxy-N'-[(1E)-1-[2,4,6-trioxo-1-(phenylmethyl)-1,3-diazinan-5-ylidene]propyl]benzohydrazide], the IC50 is reported as over 94.1 µM.
With `O=C(NC(C(=O)NN=CC1C=C([N+](=O)[O-])C=CC1=O)c1n[nH]c(=O)c2ccccc12)c1ccccc1` (configuration not stated) [N-[2-[2-[(E)-(3-nitro-6-oxidanylidene-cyclohexa-2,4-dien-1-ylidene)methyl]hydrazinyl]-2-oxidanylidene-1-(4-oxidanylidene-3H-phthalazin-1-yl)ethyl]benzamide] the IC50 was over 94.1 µM.
`O=C(N/N=C/C1C=C([N+](=O)[O-])C=CC1=O)/C(=C\c1cccs1)NC(=O)c1ccccc1` (configuration not stated) [MLS000332530] gave an IC50 of over 94.1 µM.
`CCOC(=O)C1C(CC)=Nc2ccccc2N=C1NC(=O)Nc1ccc(Cl)c(Cl)c1` (configuration not stated) was tested, and the IC50 was 10.7 µM.
`Cc1cc(=O)oc2cc(OCC(=O)N/N=C/C3C=C([N+](=O)[O-])C=CC3=O)ccc12` (configuration not stated) [MLS000588734] showed an IC50 of over 94.1 µM.
`Oc1c(Br)cc(CC=Nc2cc(O)c3cccnc3c2O)cc1Br` [7-[2-(3,5-dibromo-4-hydroxyphenyl)ethylamino]quinoline-5,8-dione] showed an IC50 of 18.8 µM.
Work on `COc1ccc(CC(=O)N/N=C/C2C=C([N+](=O)[O-])C=C(Br)C2=O)cc1` (configuration not stated) yielded an IC50 of over 94.1 µM.
`O=C(N/N=C/C1C=C(Cl)C=C([N+](=O)[O-])C1=O)c1cccc(S(=O)(=O)N2CCOCC2)c1` (configuration not stated) [MLS002155639] showed an IC50 of over 94.1 µM.
With `Cc1cc(C(=O)N/N=C/C2C=C(Cl)C=C([N+](=O)[O-])C2=O)c2ccccc2n1` (configuration not stated) [N'-[(E)-(3-chloranyl-5-nitro-6-oxidanylidene-cyclohexa-2,4-dien-1-ylidene)methyl]-2-methyl-quinoline-4-carbohydrazide] the IC50 was over 94.1 µM.
Compound `O=C1NC(=O)N(CCc2ccccc2)C(=O)C1=CNNC(=O)c1ccccc1O` [2-hydroxy-N'-[(E)-[2,4,6-trioxo-1-(2-phenylethyl)-1,3-diazinan-5-ylidene]methyl]benzohydrazide] has an IC50 of over 94 µM.
`CCc1n[nH]c(=S)n1N=CC1C=C(OC)C=C([N+](=O)[O-])C1=O` (configuration not stated) [(6E)-6-[[(3-ethyl-5-sulfanylidene-1H-1,2,4-triazol-4-yl)amino]methylidene]-4-methoxy-2-nitro-1-cyclohexa-2,4-dienone] showed an IC50 of 18.4 µM.
`O=C(NN=CC1=CC(=O)C(=O)CC1)NN=CC1=CC(=O)C(=O)CC1` [1,3-bis[[(Z)-(3-hydroxy-4-oxocyclohexa-2,5-dien-1-ylidene)methyl]amino]urea] gave an IC50 of 1.03 µM.
`COC1=CC(=O)C(/C=N/NC(=O)c2ccncc2)C(OC)=C1[N+](=O)[O-]` (configuration not stated) [MLS000673335] gave an IC50 of over 94.1 µM.
For `CC(NNC(=O)c1ccc(-c2ccccc2)cc1)=C1C(=O)c2ccccc2C1=O` [N-[(E)-1-(1,3-dioxoinden-2-yl)ethylideneamino]-4-phenylbenzamide], the IC50 was over 94.1 µM.
`COC1=CC([N+](=O)[O-])=CC(/C=N/NC(=O)c2cc(C)nc3ccccc23)C1=O` (configuration not stated) gave an IC50 of over 94.1 µM.
With `O=C(O)c1ccccc1NS(=O)(=O)c1ccc(N=NCc2ccc(O)c(O)c2)c([N+](=O)[O-])c1` [SMR001238114] the IC50 was 32.5 µM.
`CCOC(=O)c1c(C)[nH]c(C(=O)N/N=C/C2C=C([N+](=O)[O-])C=CC2=O)c1C` (configuration not stated) [ethyl 2,4-dimethyl-5-[[[(E)-(3-nitro-6-oxocyclohexa-2,4-dien-1-ylidene)methyl]amino]carbamoyl]-1H-pyrrole-3-carboxylate] gave an IC50 of over 94.1 µM.
Compound `O=C(N/N=C/C1C=C([N+](=O)[O-])C=CC1=O)c1cccc(N2CCCC2=O)c1` (configuration not stated) has an IC50 of over 94.1 µM.
Compound `O=C1C([N+](=O)[O-])=CC=CC1/C=N/n1cnc2scc(-c3ccc(Cl)cc3)c2c1=O` (configuration not stated) [SMR000314525] has an IC50 of over 94.1 µM.
With `Cc1cc(C(=O)N/N=C/C2C=C(Br)C=C([N+](=O)[O-])C2=O)c2ccccc2n1` (configuration not stated) [MLS000585468] the IC50 was over 94.1 µM.
With `COc1ccc(C(=O)CC=NNC(=O)c2ccc(Cl)cc2)cc1` [SMR000499516] the IC50 was over 94.1 µM.
Compound `O=C(CSc1nc2ccccc2s1)N/N=C/C1C=C([N+](=O)[O-])C=CC1=O` (configuration not stated) [MLS000777065] has an IC50 of over 94.1 µM.
With `O=C1NC(=O)N(Cc2ccco2)C(=O)C1=CNNC(=O)c1ccccc1O` [N'-[(E)-[1-(furan-2-ylmethyl)-2,4,6-tris(oxidanylidene)-1,3-diazinan-5-ylidene]methyl]-2-oxidanyl-benzohydrazide] the IC50 was over 94 µM.
With `Cc1c(NC(=S)NN=CC2C=C([N+](=O)[O-])C=CC2=O)c(=O)n(-c2ccccc2)n1C` (configuration not stated) [SMR000415003] the IC50 was over 94.1 µM.
`C=CCN1C(=O)/C(=N\NC(=O)CNC(=O)/C=C/c2ccco2)c2ccccc21` [(E)-N-[1-Allyl-2-oxo-1,2-dihydro-indol-(3Z)-ylidene-hydrazinocarbonylmethyl]-3-furan-2-yl-acrylamide] was tested, and the IC50 was over 94.1 µM.
`Cc1cc(C(=O)NN=CC2C=C(Cl)C=C([N+](=O)[O-])C2=O)[nH]n1` (configuration not stated) [SMR000414694] gave an IC50 of over 94.1 µM.
In the case of `Cc1cc2cc(CNC(=O)c3ccc(C)c([N+](=O)[O-])c3)ccc2[nH]1` [MLS000724615], the IC50 is reported as over 94.1 µM.
Work on `O=C1C([N+](=O)[O-])=CC(Cl)=CC1C=NNC(=S)Nc1ccc(S(=O)(=O)N2CCOCC2)cc1` (configuration not stated) [1-[[(E)-(3-chloro-5-nitro-6-oxo-1-cyclohexa-2,4-dienylidene)methyl]amino]-3-[4-(4-morpholinylsulfonyl)phenyl]thiourea] yielded an IC50 of over 94.1 µM.
With `O=C1C=CC([N+](=O)[O-])=CC1/C=N/n1c(COc2ccccc2)nc2ccccc2c1=O` (configuration not stated) [3-[[(E)-(3-nitro-6-oxocyclohexa-2,4-dien-1-ylidene)methyl]amino]-2-(phenoxymethyl)quinazolin-4-one] the IC50 was over 94.1 µM.
With `O=C(N/N=C/C1C=CC=C([N+](=O)[O-])C1=O)c1cccs1` (configuration not stated) the IC50 was over 94.1 µM.
`O=C(N/N=C/C1C=C([N+](=O)[O-])C=C([N+](=O)[O-])C1=O)/C(=C\c1cccs1)NC(=O)c1ccccc1` (configuration not stated) [SMR000207704] was tested, and the IC50 was over 94.1 µM.
`CC1=CC([N+](=O)[O-])=CC(/C=N/n2c(C)nc3ccccc3c2=O)C1=O` (configuration not stated) [MLS000778735] was tested, and the IC50 was over 94 µM.
In the case of `O=Nc1[nH]c(=O)c(CC(=O)c2ccccc2)nc1NO` [SMR000539633], the IC50 is reported as over 94.2 µM.
`Oc1ccc(CN=Nc2ncnc3c2ncn3Cc2ccccc2)cc1O` [(4Z)-2-oxidanyl-4-[[2-[9-(phenylmethyl)purin-6-yl]hydrazinyl]methylidene]cyclohexa-2,5-dien-1-one] was tested, and the IC50 was over 94.1 µM.
`O=C(CNC(=O)c1ccccc1Br)N/N=C/C1C=C([N+](=O)[O-])C=C(Br)C1=O` (configuration not stated) [2-bromanyl-N-[2-[2-[(E)-(5-bromanyl-3-nitro-6-oxidanylidene-cyclohexa-2,4-dien-1-ylidene)methyl]hydrazinyl]-2-oxidanylidene-ethyl]benzamide] was tested, and the IC50 was over 94.1 µM.
`CC1=CC(/C=N/n2c(COc3ccccc3C)nc3ccccc3c2=O)C(=O)C([N+](=O)[O-])=C1` (configuration not stated) showed an IC50 of over 94.1 µM.
For `Cc1ccc(C(=O)Nc2nc(C(C)(C)C)cs2)s1` [N-(4-tert-butyl-2-thiazolyl)-5-methyl-2-thiophenecarboxamide], the IC50 was over 94.1 µM.
In the case of `O=C1NC(=O)N(Cc2ccco2)C(=O)C1=CNNC(=O)c1ccccc1` [N'-[(E)-[1-(furan-2-ylmethyl)-2,4,6-tris(oxidanylidene)-1,3-diazinan-5-ylidene]methyl]benzohydrazide], the IC50 is reported as over 94.2 µM.
Work on `O=C1CC(=O)c2c(O)cc(O)c(O)c2C1=O` [4,5,7,8-tetrahydroxy-1,2-naphthoquinone] yielded an IC50 of over 94.1 µM.
In the case of `CC1=CC([N+](=O)[O-])=CC(/C=N/NC(=O)C2COc3ccccc3O2)C1=O` (configuration not stated) [N'-[(E)-(5-methyl-3-nitro-6-oxocyclohexa-2,4-dien-1-ylidene)methyl]-2,3-dihydro-1,4-benzodioxine-3-carbohydrazide], the IC50 is reported as over 94.2 µM.
